Tests used:
Format in all cases: cell-based
SmACC-1 [1] = molecular target: T1, SmACC-1 (Schistosoma mansoni, UniProt V5WAE7); test: YFP halide sensor iodide flux assay in transfected HEK-293 cells; block of […] nicotine response by […] antagonist
T1 construct: gene ACC-1; full-length, human codon-optimized, C-terminal FLAG tag; homomeric channel
T1 sequence (V5WAE7 24-804): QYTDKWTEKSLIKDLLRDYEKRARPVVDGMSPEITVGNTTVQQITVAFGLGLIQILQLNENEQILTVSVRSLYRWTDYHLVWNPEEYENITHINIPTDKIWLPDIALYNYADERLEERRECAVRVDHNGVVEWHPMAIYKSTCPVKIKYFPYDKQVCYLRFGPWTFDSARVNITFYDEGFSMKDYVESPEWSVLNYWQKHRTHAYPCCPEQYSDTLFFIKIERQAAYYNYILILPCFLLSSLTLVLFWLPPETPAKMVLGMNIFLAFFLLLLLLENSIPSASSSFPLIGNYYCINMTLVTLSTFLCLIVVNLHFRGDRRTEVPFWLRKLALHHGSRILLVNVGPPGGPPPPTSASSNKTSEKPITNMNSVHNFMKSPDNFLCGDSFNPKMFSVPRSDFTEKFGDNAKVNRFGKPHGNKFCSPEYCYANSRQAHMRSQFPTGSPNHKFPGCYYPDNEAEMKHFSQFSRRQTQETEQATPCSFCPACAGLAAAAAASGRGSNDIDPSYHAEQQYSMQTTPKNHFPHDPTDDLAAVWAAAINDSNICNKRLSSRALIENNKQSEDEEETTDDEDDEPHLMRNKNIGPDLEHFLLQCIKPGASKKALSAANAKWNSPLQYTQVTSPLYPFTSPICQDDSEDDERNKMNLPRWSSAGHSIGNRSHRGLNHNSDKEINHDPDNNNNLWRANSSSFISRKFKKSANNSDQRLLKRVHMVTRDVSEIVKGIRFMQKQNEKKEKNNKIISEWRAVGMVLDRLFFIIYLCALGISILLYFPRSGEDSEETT

SmACC-1 [2] = molecular target: T1, SmACC-1; test: YFP halide sensor iodide flux assay in transfected HEK-293 cells, […] agonist
SmACC-1 [3] = molecular target: T1, SmACC-1; test: YFP halide sensor iodide flux assay in transfected HEK-293 cells, dose response (agonist)

SMILES | YFP halide sensor iodide flux assay in transfected HEK-293 cells, 100 μM agonist (SmACC-1 [2]) | also measured
COc1cc2c3cc1Oc1cc(ccc1O)C[C@@H]1c4c(cc(OC)c(O)c4Oc4ccc(cc4)C[C@@H]3N(C)CC2)CC[N+]1(C)C [D-tubocurarine] |  | YFP halide sensor iodide flux assay in transfected HEK-293 cells; block of 100 μ (SmACC-1 [1]): only D-tubocurarine was able to significantly block the activation of SmACC-1 by nicotine
COC(=O)C1=CCCN(C)C1 [arecoline] | statistically significant responses were also seen with other cholinergic agonists (ACh, choline chloride, carbachol and arecoline) | 
C[N+](C)(C)CCOC(N)=O [carbachol] | statistically significant responses were also seen with other cholinergic agonists (ACh, choline chloride, carbachol and arecoline) | 
C[N+](C)(C)CCO [choline] | statistically significant responses were also seen with other cholinergic agonists (ACh, choline chloride, carbachol and arecoline) | 
CN1CCC[C@H]1c1cccnc1 [nicotine] |  | EC50 (SmACC-1 [3]): 4.3 ± 1.4 µM

Source: publication PMC4055736, “Functional Characterization of a Novel Family of Acetylcholine-Gated Chloride Channels in Schistosoma mansoni” (PLoS Pathogens, 2014)
